One experiment has as its target T1, TLR9 (Homo sapiens, UniProt Q9NR96).
T1 construct: host or cells: HEK-293 (HEK-293-hTLR9A)
T1 sequence (Q9NR96 26-1032): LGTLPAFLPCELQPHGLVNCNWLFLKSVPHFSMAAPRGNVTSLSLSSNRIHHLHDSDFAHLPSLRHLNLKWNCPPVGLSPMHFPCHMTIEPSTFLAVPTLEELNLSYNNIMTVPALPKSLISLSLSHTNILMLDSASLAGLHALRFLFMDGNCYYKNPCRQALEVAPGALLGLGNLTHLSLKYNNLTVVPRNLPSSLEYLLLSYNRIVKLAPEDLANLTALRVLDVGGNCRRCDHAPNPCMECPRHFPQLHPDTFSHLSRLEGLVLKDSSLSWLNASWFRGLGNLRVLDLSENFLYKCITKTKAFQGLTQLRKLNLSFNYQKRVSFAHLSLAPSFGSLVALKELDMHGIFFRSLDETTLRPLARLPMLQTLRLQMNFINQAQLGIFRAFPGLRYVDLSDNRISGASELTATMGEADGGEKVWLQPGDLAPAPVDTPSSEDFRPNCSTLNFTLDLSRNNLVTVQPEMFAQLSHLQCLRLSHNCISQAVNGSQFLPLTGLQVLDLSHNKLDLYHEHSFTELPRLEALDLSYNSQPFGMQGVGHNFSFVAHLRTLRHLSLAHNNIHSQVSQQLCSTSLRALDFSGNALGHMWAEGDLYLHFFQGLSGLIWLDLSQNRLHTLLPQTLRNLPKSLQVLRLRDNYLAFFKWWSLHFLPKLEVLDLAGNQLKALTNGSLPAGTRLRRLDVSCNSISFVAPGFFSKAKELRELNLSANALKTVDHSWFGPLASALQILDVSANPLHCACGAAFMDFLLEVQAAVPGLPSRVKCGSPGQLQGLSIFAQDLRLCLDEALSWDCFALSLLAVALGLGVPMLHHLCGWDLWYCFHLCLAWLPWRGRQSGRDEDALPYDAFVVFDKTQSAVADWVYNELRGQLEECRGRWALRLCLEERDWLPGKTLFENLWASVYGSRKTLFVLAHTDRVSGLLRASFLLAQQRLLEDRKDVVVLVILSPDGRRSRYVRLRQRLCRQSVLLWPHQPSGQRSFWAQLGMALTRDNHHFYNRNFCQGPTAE
Nature of the experiment: NF-kB activation in HEK-293 cells transfected with TLR9, stimulated with CpG. It counts as cell-based. The note with it: TLR9-transfected HEK 293; CpG (0.5 µM); maximal dose of 50 µM; measured 2 h later. The protocol:
• Figure 1. Antagonistic activity of compounds Ia, Ic and Id on lipid A-stimulated cytokine production in BMDC, BMØ and D1 cells. TNFα production was measured in the supernatants 24 h later. From the right: lipid A (0.5µM), cells treated with lipid A alone; DMSO: cells incubated in the presence of complete medium plus DMSO; inhibitor 50 µM, cells treated only with monosaccharides Ia, Ic and Id; other columns, lipid A + compounds […] at increasing doses. The data represent means and standard deviations of triplicate wells. This is a representative of three independent experiments. *, p < 0.05; **, p < 0.01; ***, p< 0.001. • Figure 2. TLR-4 selectivity of monosaccharide Id. […] IL-1β was measured in the supernatants by ELISA. […] Lower panels, TNFα production measured by ELISA 24 h after stimulation with CpG (selective for TLR-9) or PAM3Cys-SK4 (selective for TLR-2) in the presence of compound Id. […] The cells were then analyzed by FACS for the presence of annexin V and propidium iodide (PI) double positive cells. […] NF-kB activation was evaluated in the nuclear extract 2 h later and expressed as optical density (OD) at 450 nm. […] Effect of different doses of compound Id on carrageenan induced edema in mice measured 4h after the exposure and expressed as difference between the paw volume of treated paw versus the contralateral paw. […]

Another experiment has as its system neuropathic mice. Nature of the experiment: Neuropathic pain after sciatic nerve ligation (plantar test, Von Frey test). It counts as in vivo, mice C57BL/6J. To be noted: i.p. 5 mg/kg once a day for one week starting the day after surgery. The protocol:
Male mice C57BL/6J were anesthetized with sodium pentobarbital (65 mg/kg, i.p.) and submitted to surgery to induce neuropathic pain. […] Sham animals (sciatic exposure without ligation) were used as controls. The animal pain response was monitored before surgery, on day 7 (24 h after the last administration). Compound (Id) was administered i.p. at 5 mg/kg once a day starting the day after the surgery. Heat hypersensitivity was tested according to the Hargreaves' procedure using the plantar test (Ugo Basile, Varese, Italy). Mechanical allodynia was measured using the Von Frey test.

For one molecule, NF-kB activation, mechanical allodynia and thermal hyperalgesia results are on record in patent EP1996603B1, “LIPID A ANTAGONISTS WITH ANTI-SEPTIC SHOCK, ANTI-INFLAMMATORY, ANTI-ISCHEMIA AND ANALGESIC ACTIVITY” (Università Degli Studi Di Milano - Bicocca, priority 2006, dated 2007).

Take `CCCCCCCCCCCCCCO[C@H]1[C@@H](OC)O[C@H](C[N+](C)(C)C2CCCC2)[C@@H](O)[C@@H]1OCCCCCCCCCCCCCC` [Compound Id, methyl 6-deoxy-6-N,N',N"-dimethylcyclopentylammonium-2,3-di-O-tetradecyl-α-D-glucopyranoside]: on TLR9, the NF-kB activation entry is “inactive”. For the same molecule, the mechanical allodynia entry with neuropathic mice (Von Frey test) is given as “significant relief”. The thermal hyperalgesia entry in the experiment with neuropathic mice (plantar test) was “significant relief”.
